The text below walks through data of a melting point compilation (Tetko et al.; mined from patent text by program, amines drawn as free bases though some values may be those of a salt).

Structures are written as SMILES.

Usually melting point stands for the temperature, or range, at which the solid turns liquid. On to `COc1ccc2cc(S(=O)(=O)Cl)cc(OC)c2c1`, for which the melting point worked out at 134 °C. The value for `C[Si](C)(C)CCCNC(=O)n1cc(F)c(=O)[nH]c1=O` was 146 to 149 °C. The value for `CN(C)c1ccc(CNc2nc(Nc3cccc(NS(C)(=O)=O)c3)nc3[nH]cnc23)cc1` was 138 to 142 °C. The value for `CCOC(=O)C1=C(CSC(C)=O)NC(C)=C(C#N)C1c1cccc([N+](=O)[O-])c1` (stereo not given) was 155 to 157 °C; that for `Fc1cccc(F)c1Cn1nnc2c(Cl)nccc21` was 133 to 139 °C. The compound `Nc1nc(OCCC2CCCCC2)c2[nH]cnc2n1` displayed a melting point of 210 °C. In the case of `O=C1CCC(c2ccccc2)(c2ccccc2)[C@@H]2CN(C(=O)Cc3ccccc3C(F)(F)F)C[C@H]12` (racemic) it was 207 °C. In the case of `CC(C)CSc1cc(C(=O)O)cc(N)c1Oc1ccccc1` it was 148 to 150 °C. `FC(F)(F)c1cc(Cl)c(-c2nc(C(F)(F)F)c(Br)[nH]2)c(Cl)c1` gave a melting point of 295 °C. In the case of `CN(CCN(C)c1ccc([N+](=O)[O-])cc1)c1ccncc1` it was 126 to 127 °C; in that of `COC(=O)[C@@H]1C[C@@H](OS(C)(=O)=O)CN1C(=O)C1(C(F)(F)F)CC1`, 123 to 124 °C; in that of `O=C(O)c1cc(Cl)ccc1SSc1ccc(Cl)cc1C(=O)O`, 320 to 324 °C.

For `O=C(NCCSCc1ccccc1)c1c(Cl)cccc1Cl`, the melting point lay within 96 to 97 °C. The value for `COc1cc(C)nc(NC(=O)NS(=O)(=O)C2=CCCCC2)n1` was 163 to 166 °C.

Turning to `Cc1cccc(-c2nn3c(c2-c2ccc(F)cc2)CC[C@H]3CO)n1`, the melting point lay in the range of 142 to 144 °C. Compound `CCCCCCCOc1ccc(C(=O)CCC(=O)OCC)cc1` registered a melting point of 39.7 to 40.1 °C. In the case of `CC(C)c1nc(COCc2ccccc2)n(CCO)c1Sc1cc(Cl)cc(Cl)c1` it was 78 to 80 °C. Take `CCC(O)(C#CC(O)c1ccc(SC)cc1)CC` (stereo not given): the melting point was in the range of 64 to 65 °C. The compound `CN(C)CC(=O)Nc1cccc2nc(NC3CCc4cc(F)ccc43)ccc12` (racemic) showed a melting point of 164 °C.

With `CCOC(=NC(=O)c1ccc(-c2ccccc2)cc1)N1Cc2ccccc2-c2ccccc2C1`, the melting point was 52 to 58 °C.

Compound `CCn1c(Oc2cccc(N3CCNCC3)c2)nnc1[C@@H](C)NS(=O)(=O)c1ccc(Cl)c(Cl)c1` gave a melting point of 175 to 178 °C. The value for `CCCCn1c2c(c3cc(OC)c(OC)cc3c1=O)C(=O)c1cc3c(cc1-2)OCO3` was 280 to 284 °C; that for `CC(C)(Cl)C(CNC(=O)c1ccc([N+](=O)[O-])o1)N=O` (stereo not given) was 110 to 112 °C. In the case of `O=C(NC(CS)Cc1ccccc1)N1CCOCC1` (single isomer, unassigned; (+)) it was 84 °C. For the compound `CCc1nc(-c2cnccn2)no1`, the melting point lay in the range of 52 to 57 °C. In the case of `O=C(O)C1CC=CCC1C(=O)N1CCc2cc(S(=O)(=O)N3CCN(c4cccc(Cl)c4)CC3)ccc21` (stereo not given) it was 146 to 148 °C; in that of `O=C(O)[C@@H]1C[C@H]2C[C@@H](C=Cc3nsnc3O)CC[C@H]2CN1` (racemic), 239 to 242 °C. `CCc1cnc(N2CCN(C(=O)c3cccc(Nc4ncnc5ccccc45)c3)CC2)nc1` displayed a melting point of 146 to 147 °C.

As to `CON1C(C)(C)CC(=O)CC1(C)C`, the melting point lay within 35 to 38 °C. Consider `O=C(CBr)NCCC(=O)ON1C(=O)CCC1=O`, for which the melting point lay within 107 to 110 °C.

`CC(=O)OC1=CC=C2CC3N4CCC25C1OC1C(=O)CCC3(OC4)C15` (stereo not given) displayed a melting point of 179 to 182 °C. In the case of `COc1ccc(C2CCN(C(N)=O)CC2)cc1OC1CCCC1` it was 149 to 150 °C. The value for `CC(C)(C)OC(=O)NC1CCCCCC=CC2CC2(C(=O)NS(=O)(=O)C2CC2)NC(=O)C2CC(OC(=O)c3ccc(Cl)cc3)CN2C1=O` (stereo not given) was 143 to 145 °C; that for `N#CCCNC(=O)c1cccc(-c2cccc3oc(Cc4ccc(F)c(Cl)c4)cc23)c1` was 130 to 131 °C.

On to `CCc1nc(Cl)c([N+](=O)[O-])c(NC(C)C)n1`, for which the melting point was in the range of 51 to 52 °C. In the case of `CCCCc1nc(N)c(N)c(=O)[nH]1` it was 160 to 165 °C; in that of `NS(=O)(=O)Oc1cccc(I)c1`, 106 to 108 °C; in that of `COc1cccc2c1Sc1c(OC)cccc1C2(CCOS(C)(=O)=O)CCOS(C)(=O)=O`, 176 to 178 °C. In the case of `CC1=C(C(=O)Nc2cc(Cl)ccc2Cl)SC2=NCCN21` it was 217 to 219 °C; in that of `CCCn1c(=O)c2c(nc(/C=C/c3ccc(OC(=O)c4ccccc4)c(OC(=O)c4ccccc4)c3)n2C)n(CCC)c1=O`, 231 °C. The value for `CCCCOc1ccc(COC(=O)C(=O)OCc2ccc(OCCCC)cc2)cc1` was 114 °C; that for `CCCCCC1CCC(c2ccc(-c3cc(F)c(C(F)(F)Oc4cc(F)c(C(F)(F)F)c(F)c4)c(F)c3)c(F)c2)CC1` (stereo not given) was 74 °C; that for `CC(C)(C)OC(=O)NCc1cccc(C(=O)N[C@H]2C[C@H](C(=O)O)Nc3cc(Cl)cc(Cl)c32)c1` (relative stereo) was 192 to 193 °C. Consider `CC(C)(C)OC(=O)Nc1ccc(-c2ccc(S(=O)(=O)n3ccc(/C=C/C(=O)NOC4CCCCO4)c3)cc2)cn1` (stereo not given), for which the melting point fell in the range of 140 to 146 °C. The value for `C[C@H](COS(C)(=O)=O)N1C(=O)c2ccccc2C1=O` was 75 to 77 °C; that for `CON(C(=N)N)c1nc(C)cc(C)n1` was 134 to 136 °C.

The compound `CCOc1cc(-c2cc(C(F)(F)F)n3ncc(C(=O)Nc4cc(S(=O)(=O)NCCO)sc4Cl)c3n2)ccc1C(F)(F)F` had a melting point of 250 °C. The value for `CO/C=C(/C(=O)OC)n1cccc1` was 88 to 89 °C; that for `CN1C(=O)Cc2ccc(Cl)cc21` was 116 to 117 °C. In the case of `COC(=O)[C@H](Cc1ccc(CC(=O)O)c(C2SCCS2)c1)NC(C)=O` it was 113 to 119 °C; in that of `Cc1nc(OC(F)F)c(C#N)c(N2CCc3ccccc3CC2)n1`, 143 °C. In the case of `CC(=O)SCC(Cc1ccccc1)C(=O)NC1(C(=O)OCc2ccccc2)CCCCC1` (stereo not given) it was 166 to 168 °C. `Nc1ncnc2c1ncn2OCC(O)COCP(=O)(O)O` (stereo not given) registered a melting point of 218 to 221 °C. `Cc1cc(Br)cnc1CCCCNC1=NS(=O)(=O)c2cc([N+](=O)[O-])ccc21` yielded a melting point of 235 to 242 °C. In the case of `Clc1ccc(Cl)c(CN2CCNc3ncc(I)cc32)c1` it was 169 °C; in that of `N#CC(C#N)=C1Sc2nc3ccc(C(F)(F)F)cc3nc2S1`, 197 to 199 °C. In turn, `C#CCOC[C@@H](NC(C)=O)C(=O)OC` had a melting point of 58.5 to 59.5 °C.

`CCc1cccc(CC)c1N(C=O)CC(=O)O` came in with a melting point of 139 to 141 °C. The compound `CC(=O)c1ccc2c(c1)OCC(C(=O)O)O2` (stereo not given) came in with a melting point of 159 to 162 °C. The value for `COC(=O)C(C)(C)Cc1c(SC(C)(C)C)c2cc(O)ccc2n1Cc1ccc(Cl)cc1` was 170 to 171 °C; that for `CCCCCCCCCCCCCCCCCCOc1ccc(OCc2ccccc2)c(C(=O)OC)c1` was 52 to 54 °C. In the case of `Nc1nc2ccccc2n1-c1cccc(-c2ccc3[nH]ccc3c2)c1` it was 120 to 123 °C; in that of `CC(=O)OC1CC2(C)C(=O)CCC2C2C(CCCCCCCCCCl)CC3=CC(=O)CCC3C12` (stereo not given), 113 to 115 °C; in that of `N#Cc1cccc(-c2ccco2)n1`, 90.2 to 90.3 °C. In the case of `CC(C)(C)c1cc(-c2c[nH]c(S(C)(=O)=O)n2)cc(C(C)(C)C)c1O` it was 119 to 120 °C; in that of `CN(C)C(=O)Nc1ccc(O)cc1`, 178 to 179 °C. Regarding `CC1(C)CCc2c(N3CCSCC3)nc3sc4c(NCCCN5CCCC5=O)ncnc4c3c2C1`, the melting point fell in the range of 219 to 221 °C.

As to `C=CCOc1ccccc1OCC(O)CNCCOc1ccc(O)c(C(N)=O)c1` (stereo not given), the melting point was in the range of 147 to 148 °C.

On to `COc1cc(C=O)ccn1`, for which the melting point was in the range of 33 to 35 °C.

For the compound `CCc1cc(S(=O)(=O)c2ccc(N)cc2)cc(N2CCCC2)n1`, the melting point is 154 to 155 °C. As for `O=C(O)c1cc(S(=O)(=O)N2CCCC(OCc3ccccc3)C2)ccc1Cl` (stereo not given), the melting point was 173 to 174 °C. The value for `N=C(N)c1ccc2c(c1)C(CCNC(=O)c1ccc(-c3ccccn3)s1)CO2` (stereo not given) was 54 to 56 °C; that for `CCCc1c(COc2ccc3c(=O)cc(C(=O)O)oc3c2CCC)ccc(C(C)=O)c1O` was 195 to 205 °C; that for `O=C(Nc1cccc(OCc2cccnc2)c1)N1CCOCC1` was 58 to 62 °C. The value for `ON=C1CCOc2ccccc21` was 114 to 117 °C; that for `COC(=O)CCCC(=O)c1ccc2c(c1)CCO2` was 80 to 81 °C.

For the compound `CCOC(=O)C1=C(C)NC(CS)=C(C(=O)OCC)C1c1cccc([N+](=O)[O-])c1` (stereo not given), the melting point was 145 to 147 °C.

As to `CCOc1cccc(-c2ccc3c(c2)C=C(C(=O)Nc2ccc(CN(C)C4CCOCC4)cc2)CCS3(=O)=O)c1`, the melting point lay within 192 to 195 °C.

The compound `CCCn1c(Cl)nc2ccc(I)cc2c1=O` gave a melting point of 98 to 100 °C. In the case of `O=Cc1c[nH]c2ncc(-c3cccc(N4CCN(C(=O)C5CCNCC5)CC4)c3)nc12` it was over 300 °C; in that of `COC(=O)NC=Cc1ccc(OCC(O)CNC(C)CC(N)=O)cc1` (stereo not given), 109 to 111 °C; in that of `CC(C)CCC1(c2ccccc2)CC=CC(=O)O1` (stereo not given), 134 to 136 °C. In the case of `CCOC(=O)/C=C/c1cnn(C)c1-c1cccnc1` it was 159 to 160 °C; in that of `Cc1cc(Oc2cc(C(F)(F)F)nn2C)nc(-c2ccsc2)n1`, 122 °C. In the case of `CC1(C(=O)NCCc2cccs2)CC1` it was 86 to 88 °C; in that of `O=C(O)Cc1ccc(NC(=O)c2ccccc2)cc1`, 207 to 208 °C; in that of `CCSc1cc(C)nc(SCC)c1NC(=O)CCCCCCCSc1nc2ccccc2[nH]1`, 166 to 168 °C.

Compound `COc1cc(CC2NC(=O)NC2=O)cc(OC)c1OC` (stereo not given) yielded a melting point of 180 to 181 °C.

Regarding `CC(C)(COc1ccc2ncnn2n1)CS(N)(=O)=O`, the melting point was 181 to 184 °C. In the case of `COc1ccc(C(=O)c2c(N)sc(C)c2C)cc1OC` it was 172 to 173 °C.
